The values that follow come from US11866416B2, “Streptococcus mutans glucosyl transferase inhibitors for dental caries therapy” (UAB Research Foundation, priority 2018, dated 2024).

One data set has as its target GtfB catalytic domain (Streptococcus mutans serotype c (strain ATCC 700610 / UA159), UniProt P08987). The experiment in a line: OctetRed96 binding kinetics, GtfB. To be noted: 1:1 binding model. From the text: To determine if the inhibition is attributed by the binding of the lead compound to the enzymes, the OctetRed96 system was used to characterize protein-small molecule binding kinetics. The his-tagged catalytic domains of GtfB and GtC were immobilized separately onto an anti-penta-HIS (HIS1K) biosensor which consists of high affinity, high specificity penta-his antibody pre-immobilized on a fiber optic biosensor. This sensor was then exposed to varying concentrations of #G43.
Expression and purification of GtfB and GtfC catalytic domains. The DNA fragment coding for either GtfB catalytic (residues 268 aa-1074 aa) or GtfC-catalytic (residues 295 aa-1103 aa) was PCR amplified with primer sets of GtfB-BamH1-F and GtfB-Xho1-R, GtfC-BamH1-F and GtfC-Xhol1-R respectively using S. mutans genomic DNA as a template. Each amplified fragment was cloned into pET-sumo vector respectively and transformed in Escherichia coli BL21(DE3). The recombinant strain grown to OD600=0.8 in LB medium was induced with 0.1 mM IPTG at 18° C. overnight. Cell lysates prepared form the overnight grown E. coli cells were subjected to protein purification using HiTrap™ Column (Ni^2+ affinity) followed by gel filtration experiments as described (Zhu, F. et al. Structural and functional analysis of a new subfamily of glycosyltransferases required for glycosylation of serine-rich streptococcal adhesins. The Journal of biological chemistry 286, 27048-27057, doi:10.1074/jbc.M110.208629 (2011); Zhang, H. et al. The highly conserved domain of unknown function 1792 has a distinct glycosyltransferase fold. Nature communications 5, 4339, doi:10.1038/ncomms5339 (2014)).
Octet Red analysis. Octet full kinetic binding analysis was performed for binding of #G43 to GtfB and GtfC. The rate constant, KD, was determined using the Octet® Red96 system (ForteBio, Menlo Park, Calif.). Phosphate buffer with 3.5% (w/v) DMSO was used. The proteins were captured on dip-and-read Anti-Penta-HIS (HIS1K) Biosensor. These consist of high affinity, high specificity Penta-His antibody from Qiagen pre-immobilized on a fiber optic biosensor. The binding of #G43 at 3-fold serial dilutions in phosphate buffer from 200, 66.6, 22.2, 7.4, 2.5 to 0 μM was assessed. The ForteBio Octet analysis software (ForteBio, Menlo Park, Calif.) was used to generate the sensorgram and the accuracy of the analysis.
OctetRed analysis. […] GtfC and GtfB were purified. The Octet® Red96 system (ForteBio, Menlo Park, Calif.) was used to determine the rate constant, KD. […] Sensorgrams and the accuracy of the analysis was calculated using the ForteBio OctetRed analysis software (ForteBio, Menlo Park, Calif.).

For another data set, the system named is S. mutans UA159. The experiment in a line: Rat model of dental caries. The settings on record: for bacterial colonization versus control group / body weight over the course of the study / buccal, sulcal, and proximal surface caries scores: 100 μM topically twice daily for 4 weeks; for oral tissue (mucosal and gingival tissues) at sacrifice, treated versus non-treated: 100 μM twice daily for 4 weeks. The method, then: Rat model of dental caries. S. mutans in vivo colonization and virulence were evaluated using a rat model of dental caries as previously described (Crowley, P. J., Brady, L. J., Michalek, S. M. & Bleiweis, A. S. Virulence of a spaP Mutant of Streptococcus mutans in a Gnotobiotic Rat Model. Infection and Immunity 67, 1201-1206 (1999)). […] Rats were then infected with S. mutans UA159 for three consecutive days and provided a caries-promoting Teklad Diet 305 containing 5% sucrose (Harlan Laboratories, Inc., Indianapolis, IN.) and sterile drinking water ad libitum. One group of rats was then treated with vehicle control while another group was topically treated with the lead compound at 100 μM twice daily for 4 weeks beginning 10 days post infection. Following each treatment, drinking water was withheld for 60 min. Animals were weighed at weaning and at the termination of the experiment. The animals were euthanized, their mandibles excised for microbiological analysis of plaque samples on MS agar plates and BAP and for scoring of caries by the method of Keyes (Keyes, P. H. Dental caries in the molar teeth of rats. II. A method for diagnosing and scoring several types of lesions simultaneously. Journal of dental research 37, 1088-1099 (1958)). All experimental protocols were approved by University of Alabama at Birmingham Institutional Animal Care and Use Committee. The methods were carried out in accordance with the relevant guidelines and regulations.
Dental caries rat model. […] At the age of 20 days, rat pups were removed from isolators and randomly assigned into five groups. […] Rats were then infected with S. mutans UA159 for three consecutive days and provided a caries-promoting Diet 305, which contains 5% sucrose (TD.80406, diet with 62% corn starch, Harlan Laboratories, Madison, Wis.) and sterile drinking water ad libitum. The rats were then treated with the stilbene, water, or not treated respective of their study group as described above at 100 μM twice daily for 4 weeks beginning 10 days post infection. Drinking water was withheld for one hour after each treatment. Rats were weighed at weaning and after 45 days at the termination of the experiment. The animals were euthanized, their mandibles excised for microbiological analysis of plaque samples on MS agar plates and BAP and for scoring of caries by the method of Keyes. All experimental protocols were approved by the University of Alabama at Birmingham Institutional Animal Care and Use Committee and in accordance with the relevant guidelines and regulations.

For a further data set, the system named is S. mutans biofilm. The experiment in a line: S. mutans biofilm formation and inhibition assay (96-well plates, crystal violet). The settings on record: for IC50: Streptococcus mutans. Type of data set: cell-based, Streptococcus mutans.

Like-named read-outs stand apart in the source and are kept apart here.

GtfB catalytic domain, sequence (P08987 268-1074 limits assumed): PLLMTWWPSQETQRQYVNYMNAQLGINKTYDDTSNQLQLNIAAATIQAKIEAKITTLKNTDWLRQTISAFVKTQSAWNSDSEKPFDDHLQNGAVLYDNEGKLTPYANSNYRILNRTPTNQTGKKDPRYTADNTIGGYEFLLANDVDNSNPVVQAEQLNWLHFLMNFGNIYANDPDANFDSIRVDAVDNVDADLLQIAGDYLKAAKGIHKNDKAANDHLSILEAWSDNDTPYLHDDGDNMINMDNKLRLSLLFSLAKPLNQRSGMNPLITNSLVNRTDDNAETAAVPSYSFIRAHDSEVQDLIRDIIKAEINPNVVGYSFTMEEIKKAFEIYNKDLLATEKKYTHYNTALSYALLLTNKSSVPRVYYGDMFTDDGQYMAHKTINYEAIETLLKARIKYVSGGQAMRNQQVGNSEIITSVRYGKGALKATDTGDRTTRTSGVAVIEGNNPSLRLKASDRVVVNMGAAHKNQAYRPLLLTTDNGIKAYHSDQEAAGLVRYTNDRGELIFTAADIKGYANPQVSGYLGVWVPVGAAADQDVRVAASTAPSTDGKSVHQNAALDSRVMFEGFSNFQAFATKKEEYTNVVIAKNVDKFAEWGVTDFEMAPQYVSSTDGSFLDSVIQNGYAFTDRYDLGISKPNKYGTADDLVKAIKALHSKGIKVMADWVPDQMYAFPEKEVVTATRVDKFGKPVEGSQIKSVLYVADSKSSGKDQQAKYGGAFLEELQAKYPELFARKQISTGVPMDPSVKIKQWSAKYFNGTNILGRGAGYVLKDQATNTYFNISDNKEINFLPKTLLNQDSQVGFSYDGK

`NC(=O)c1ccccc1NC(=O)c1cc2cc([N+](=O)[O-])ccc2s1` [#G43]: the Kd at GtfB catalytic domain worked out at 3.7 µM. Further, in the data set with S. mutans UA159, the “bacterial colonization versus control group” value is listed as “did not reach the statistically significant difference”; the “body weight over the course of the study” value was “did not lose weight”; the “buccal, sulcal, and proximal surface caries scores” value (“buccal, sulcal” for short) is listed as “significantly reduced”. Moreover, the “inhibition of S. mutans biofilms at 12.5 μM” value in the data set with S. mutans biofilm (12.5 μM, crystal violet assay) was “more than 85%”.
The compound `Oc1cc(O)cc(/C=C/c2ccc(O)c(O)c2)c1` [Piceatannol] yielded a dissociation constant Kd at GtfB catalytic domain of 14.6 µM. For the same compound, in the data set on S. mutans UA159, the “bacterial colonization versus control group” value was “not statistically significant”; the “body weight over the course of the study” value was “did not lose weight”; the “buccal, sulcal” value is “significant reduction”; the “oral tissue (mucosal and gingival tissues) at sacrifice, treated versus non-treated” value was “no obvious differences”. In addition, the 50% inhibitory concentration (IC50) with S. mutans biofilm (Table 3, read-out: Biofilm Inhibition IC50) turned out to be 52 ± 6 µM. Further, in the data set with S. mutans biofilm (Table 4, stilbenes, NI = no inhibition, read-out: Biofilm IC50), the half-maximal inhibitory concentration (IC50) came out at 52 ± 6 µM. In the data set on S. mutans biofilm (Table 8, stilbenes, NI = no inhibition, read-out: Biofilm IC50), the 50% inhibitory concentration (IC50) was 52 ± 6 µM. In addition, the IC50 in the data set on S. mutans biofilm (read-out: S. mutans biofilm IC50) worked out at 52 µM.
Regarding `Oc1ccc(/C=C/c2cc(O)cc(O)c2)cc1` [Resveratrol, reference compound], binding on GtfB catalytic domain was put at a Kd of 144 µM. In addition, in the data set on S. mutans UA159, the “bacterial colonization versus control group” value was “not statistically significant”; the “body weight over the course of the study” value is listed as “did not lose weight”; the “buccal, sulcal” value is reported as “significant reduction”; the “oral tissue (mucosal and gingival tissues) at sacrifice, treated versus non-treated” value is listed as “no obvious differences”.
